Where two headings read alike, the source gives them in different places.
What was measured:
[1] = system: Key Broadleaf Weed and Crop Species; test: Post-emergent Test II herbicidal activity (Table 5); type: in vivo; settings: post-emergence, 336 h, 14 days after application; for pest or weed control at 70 g/ha: application rate 70 g ai/ha; for pest or weed control at 140 g/ha: application rate 140 g ai/ha
Procedure, shortened: (§1)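 Visual injury ratings (0 = no injury, 100 = complete kill) were taken 14 d after treatment, relative to untreated plants. Seedlings at the first–second true leaf stage received overhead spray at 187 L/ha; the highest rate was serially diluted to ½×, ¼×, ⅛× and 1/16×.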

[2] = system: Key Grass and Sedge Weeds as well as Grass Crops; test: Post-emergent Test II herbicidal activity (Table 6); type: in vivo; settings: post-emergence, 336 h; for pest or weed control at 70 g/ha: 70 g ai/ha; for pest or weed control at 140 g/ha: 140 g ai/ha
Procedure, shortened: as §1

[3] = ABUTH: velvetleaf (Abutilon theophrasti), read-out: Visual Growth Reduction (%) 14 Days After Application, ABUTH
[4] = AMARE: redroot pigweed (Amaranthus retroflexus), read-out: Visual Growth Reduction (%) 14 Days After Application, AMARE
[5] = BRSNN: oilseed-rape, canola (Brassica napus), read-out: Visual Growth Reduction (%) 14 Days After Application, BRSNN
[6] = CHEAL: lambsquarters (Chenopodium album), read-out: Visual Growth Reduction (%) 14 Days After Application, CHEAL
[7] = EPHHL: wild poinsettia (Euphorbia heterophylla), read-out: Visual Growth Reduction (%) 14 Days After Application, EPHHL
[8] = HELAN: sunflower (Helianthus annuus), read-out: Visual Growth Reduction (%) 14 Days After Application, HELAN
[9] = VIOTR: wild pansy (Viola tricolor), read-out: Visual Growth Reduction (%) 14 Days After Application, VIOTR
[10] = CYPES: yellow nutsedge (Cyperus esculentus), read-out: Visual Growth Reduction (%) 14 Days After Application, CYPES
[11] = DIGSA: crabgrass (Digitaria sanguinalis), read-out: Visual Growth Reduction (%) 14 Days After Application, DIGSA
[12] = ECHCG: barnyardgrass (Echinochloa crus-galli), read-out: Visual Growth Reduction (%) 14 Days After Application, ECHCG
[13] = ORYSA: rice (Oryza sativa), crop, read-out: Visual Growth Reduction (%) 14 Days After Application, ORYSA
[14] = SETFA: giant foxtail (Setaria faberi), read-out: Visual Growth Reduction (%) 14 Days After Application, SETFA
[15] = SORVU: grain sorghum (Sorghum vulgare), read-out: Visual Growth Reduction (%) 14 Days After Application, SORVU
[16] = TRZSS (wheat, Triticum aestivum), crop, read-out: Visual Growth Reduction (%) 14 Days After Application, TRZSS
[17] = ZEAMX: maize, corn (Zea mays), crop, read-out: Visual Growth Reduction (%) 14 Days After Application, ZEAMX

Structure (SMILES)	pest or weed control at 70 g/ha [1, 3] [%]	pest or weed control at 140 g/ha [1, 3] [%]	pest or weed control at 70 g/ha [1, 4] [%]	pest or weed control at 140 g/ha [1, 4] [%]	pest or weed control at 70 g/ha [1, 5] [%]	pest or weed control at 140 g/ha [1, 5] [%]	pest or weed control at 70 g/ha [1, 6] [%]	pest or weed control at 140 g/ha [1, 6] [%]	pest or weed control at 70 g/ha [1, 7] [%]	pest or weed control at 140 g/ha [1, 7] [%]	pest or weed control at 70 g/ha [1, 8] [%]	pest or weed control at 140 g/ha [1, 8] [%]	pest or weed control at 70 g/ha [1, 9] [%]	pest or weed control at 140 g/ha [1, 9] [%]	pest or weed control at 70 g/ha [2, 10] [%]	pest or weed control at 140 g/ha [2, 10] [%]	pest or weed control at 70 g/ha [2, 11] [%]	pest or weed control at 140 g/ha [2, 11] [%]	pest or weed control at 70 g/ha [2, 12] [%]	pest or weed control at 140 g/ha [2, 12] [%]	further results
COC(=O)c1nc(-c2ccc(C(F)F)c(F)c2)cc(N)c1Cl [Compound 196]	95 to 100	95 to 100	95 to 100	95 to 100	30 to 44	30 to 44	95 to 100	95 to 100	95 to 100	95 to 100	95 to 100	95 to 100	0 to 29	0 to 29	85 to 94	85 to 94	45 to 59	45 to 59	95 to 100	95 to 100	pest or weed control at 70 g/ha [2, 13]: 0 to 29%; pest or weed control at 140 g/ha [2, 13]: 0 to 29%; pest or weed control at 70 g/ha [2, 14]: 0 to 29%; pest or weed control at 140 g/ha [2, 14]: 0 to 29%; pest or weed control at 70 g/ha [2, 15]: 75 to 84%; pest or weed control at 140 g/ha [2, 15]: 75 to 84%; pest or weed control at 70 g/ha [2, 16]: 0 to 29%; pest or weed control at 140 g/ha [2, 16]: 0 to 29%; pest or weed control at 70 g/ha [2, 17]: 0 to 29%; pest or weed control at 140 g/ha [2, 17]: 75 to 84%
COC(=O)c1nc(-c2cccc(F)c2F)c(F)c(N)c1Cl [Compound 199]	95 to 100	95 to 100	95 to 100	95 to 100	85 to 94	95 to 100	85 to 94	95 to 100	60 to 74	85 to 94	75 to 84	95 to 100	0 to 29	30 to 44	0 to 29	0 to 29	0 to 29	0 to 29	0 to 29	0 to 29	pest or weed control at 70 g/ha [2, 13]: 0 to 29%; pest or weed control at 140 g/ha [2, 13]: 0 to 29%; pest or weed control at 70 g/ha [2, 14]: 0 to 29%; pest or weed control at 140 g/ha [2, 14]: 0 to 29%; pest or weed control at 70 g/ha [2, 15]: 0 to 29%; pest or weed control at 140 g/ha [2, 15]: 0 to 29%; pest or weed control at 70 g/ha [2, 16]: 0 to 29%; pest or weed control at 140 g/ha [2, 16]: 0 to 29%; pest or weed control at 70 g/ha [2, 17]: 0 to 29%; pest or weed control at 140 g/ha [2, 17]: 0 to 29%
